Measured values reported in US20130324555A1, “Method of use of pharmaceutical formulations for the treatment of apicomplexan diseases in animals” (priority 2012, published 2013).
“Also recorded” adds a separate entry of the source. Read-outs that look alike come from different tables or passages of the source.

Legend:
[1] = test system: T. gondii tachyzoites; test: In vitro inhibition of T. gondii tachyzoites (RH-YFP fluorescence / [3H]-uracil incorporation); type: cell-based; conditions: for IC90 / IC50: Toxoplasma gondii; for activity against T. gondii tachyzoites, in words: only MIC50≦1 μM considered active
Protocol: Determination of the anti-apicomplexan activity of Compounds of Formula I may be determined by one skilled in the art. Parasite proliferation was monitored by using stably transfected type I RH-YFP parasites, which constitutively express Yellow Florescent Protein. Proliferation also was tested using a [^3H]-Uracil incorporation assay, as Uracil is incorporated into nucleic acids of T. gondii tachyzoites, but not mammalian cells, as they divide. Complimentary challenge assays ensured that the observed fluorescence data was due to parasite inhibition and not to quenched fluorescence. Pyrimethamine and sulfadiazine were used as positive controls, and DMSO at a concentration of 0.1% was used as the negative control. Because T. gondii is an obligate parasite, compounds that are toxic to host cells will appear to inhibit parasite growth. Therefore, all test compounds were simultaneously evaluated for efficacy and toxicity against human cells.
Test compounds were dissolved in DMSO to make a 10 mM solution, and subsequently diluted with IMDM-C to the concentrations used in bioassay. In the in vitro experiments DMSO concentration was not greater than 0.1% unless otherwise specified. RH-YFP parasites, which stably express Yellow Florescent Protein, were used. Tachyzoites were extracted from HFF cells by double passage through a 25-gauge needle, centrifuged for 15 minutes at 1500 RPM, and resuspended in IMDM-C. Confluent monolayers of HFF cells were infected with parasites in 96-well plates (Falcon 96 Optilux Flat-bottom) with 3,500 parasites in 100 uL per well. One hour after inoculation, test compounds and control media were added for a final volume of 200 uL per well. Parasite proliferation was assessed using [^3H]-Uracil incorporation or YFP Fluorescence assay.
Human Foreskin Fibroblast (HFF) cells were maintained in confluent monolayers in Iscoves's Modified Dulbecco's Medium supplemented with 10% fetal bovine serum, 1% GlutaMAX and 1% penicillin-streptomycin-fungizone (IMDM-C). T. gondii tachyzoites were cultivated in HFF monolayers. Parasites and cells were maintained at 33° C. or 37° C. and 5% CO2. The strains of parasite used in this study include RH, RH-YFP, and Prugnaud FLUC (Type 2 parasites stably transfected with luciferase), Me49 strain, and TgGoatUS4 isolate.
25 μL of 0.1 mCi/mL*^3H]-Uracil or [^3H]-Thymidine was added to each well 24 hours before reading plates. At harvesting, contents of the wells were transferred onto a 96-well UniFilter GF/C filter plates using a Filtermate 196 cell harvester (Packard). [^3H]-Uracil and [^3H]-Thymidine incorporation was measured using a Microplate Scintillation Luminescence Counter (Packard).
72 hours after initiation of the in vitro challenge assay, parasite proliferation was assessed by reading fluorescence of YFP parasites with a Synergy H4 Hybrid Reader (BioTek) and Gen5 1.10 software, using a bottom optics positions, excitation wavelength of 514 nm, and emission wavelength of 540 nm.

[2] = Uninfected mice dosed with compound alone (groups of the oocyst study); type: in vivo; conditions: for Day of Death: challenge None; for symptoms of uninfected mice dosed with compound alone: 100 or 25 mg/kg oral gavage
Protocol: Thus, compounds 14a and 14b were tested for efficacy in a mouse model of T. gondii oocyst infection. The oocyst form of the parasite is excreted by cats and is often the form by which people and other animals become infected. This oocyst infection in mice is very virulent, and fatal. Mice were infected by oral gavage with ME49 or TgGoatUS4 oocysts. Mice were treated with either a high dose (100 mg/kg) or low dose (25 mg/kg) of 14a or 14b 1 mL suspension via oral gavage, or were not treated. […] Treatment with 14a and 14b increased survival by 1 day (Table 6, FIGS. 8 and 9).
Five groups of B7 female mice weighing approximately 25 g were used. Group 1 received only 14a (100 mg/kg, 2.5 mg/mL, 1.0 mL) by oral gavage. Group 2 received only 14a (25 mg/kg, 0.5 mg/mL, 1.0 mL) by oral gavage. Group 3 received 14a (100 mg/kg, 2.5 mg/mL, 1.0 mL) and 100 ME49 oocysts by oral gavage. Group 4 received 14a (25 mg/kg, 0.5 mg/mL, 1.0 mL) and 100 ME49 oocysts by oral gavage. Group 5 received only 100 ME49 oocysts by oral gavage.
Five groups of B7 female mice weighing approximately 25 g were used. Group 1 received only 14b (100 mg/kg, 2.5 mg/mL, 1.0 mL) by oral gavage. Group 2 received only 14b (25 mg/kg, 0.5 mg/mL, 1.0 mL) by oral gavage. Group 3 received 14b (100 mg/kg, 2.5 mg/mL, 1.0 mL) and 100 TgGoatUS4 oocysts by oral gavage. Group 4 received 14a (25 mg/kg, 0.5 mg/mL, 1.0 mL) and 100 TgGoatUS4 oocysts by oral gavage. Group 5 received only 100 TgGoatUS4 oocysts by oral gavage.

[3] = In vivo oral toxicity in mice; conditions: for toxic effects when dosed orally: gavage daily for nine days, 100 mg/kg; for signs of toxicity in mice, in words: mouse, in vivo
Protocol: Selected compounds were evaluated for in vivo efficacy against T. gondii and P. falciparum. To asses toxic effects when administered orally, selected compounds were administered orally to mice daily for nine days at a dose of 100 mg/kg. At the end of the ten days, the animals were evaluated for toxic effects.
Todetermine whether 14a or 14b exerted toxic effects when dosed orally, each compound was administered by gavage to mice daily for nine days at a dose of 100 mg/kg.
HLA B07 transgenic mice were produced at Pharmexa-Epimmune (San Diego, Calif., USA) and bred at the University of Chicago. All studies were conducted with Institutional Animal Care and Use Committee at the USDA, the University of Chicago, and the University of Strathclyde.

[4] = serial dilutions, additional test concentrations, RH-YFP, read-out: IC90
[5] = serial dilutions, additional test concentrations, RH-YFP, read-out: IC50

| SMILES | IC90 [1, 4] [nM] | activity against T. gondii tachyzoites, in words [1] | IC50 [1, 5] [nM] | Day of Death ([2]; 25 mg/kg oral gavage) | Day of Death ([2]; 100 mg/kg oral gavage) | symptoms of uninfected mice dosed with compound alone [2] | toxic effects when dosed orally [3] | signs of toxicity in mice, in words [3] | IC50 [1] [nM] | IC90 [1] [nM] |
| --- | --- | --- | --- | --- | --- | --- | --- | --- | --- | --- |
| CC(C)(C)c1cccc(NC(=O)c2cc(Cl)ccc2O)c1 [Compound 3i, N-(3-tert-butylphenyl)-5-chloro-2-hydroxybenzamide] | 16 to 31 | active at low nanomolar concentrations | – | – | – | – | – | – | – | – |
| O=C(Nc1cc(C(F)(F)F)cc(C(F)(F)F)c1)c1cc(Cl)ccc1O [Compound 3j] | 125 to 250 | active at low nanomolar concentrations; also recorded: promising activity | 16 to 31 | – | – | – | – | – | – | – |
| O=C(Oc1ccc(Cl)cc1C(=O)Nc1ccc([N+](=O)[O-])cc1Cl)c1ccccc1 [Compound 7a, 4-chloro-2-((2-chloro-4-nitrophenyl)carbamoyl)phenyl benzoate] | 125 to 250 | active at low nanomolar concentrations; also recorded: apparent increase in potency over 4 | 61 to 125 | – | – | – | – | – | – | – |
| CN(CC(=O)NN)C(=O)Oc1ccc(Cl)cc1C(=O)Nc1ccc([N+](=O)[O-])cc1Cl.Cl [Compound 14a, 4-chloro-2-((2-chloro-4-nitrophenyl)carbamoyl)phenyl (2-hydrazinyl-2-oxoethyl)(methyl)carbamate hydrochloride] | – | active at low nanomolar concentrations | – | None | None | remained asymptomatic | all mice were alive and appeared healthy | no signs of toxicity | 16 to 31 | 125 to 250 |
| CN(CC(=O)NN)C(=O)Oc1ccc(Cl)cc1C(=O)Nc1ccc(C(F)(F)F)cc1C(F)(F)F.Cl [Compound 14b, 2-((2,4-bis(trifluoromethyl)phenyl)carbamoyl)-4-chlorophenyl (2-hydrazinyl-2-oxoethyl)(methyl)carbamate hydrochloride] | – | active at low nanomolar concentrations | – | None | None | remained asymptomatic | all mice were alive and appeared healthy | no signs of toxicity | 125 to 250 | 125 to 250 |
